Assays:
HeLa [1] = assay: Compound was tested for stimulation of the incorporation of 32Pi into phospholipids of HeLa cells at 10E-7 M concentration; format: functional, Homo sapiens
HeLa [2] = assay: Compound was tested for stimulation of the incorporation of 32Pi into phospholipids of HeLa cells at 10E-5 M concentration; format: functional, Homo sapiens
HeLa [3] = assay: Compound was tested for stimulation of the incorporation of 32Pi into phospholipids of HeLa cells at 10E-6 M concentration; format: functional, Homo sapiens
HeLa [4] = assay: Compound was tested for stimulation of the incorporation of 32Pi into phospholipids of HeLa cells at 10E-8 M concentration; format: functional, Homo sapiens
Mus musculus = species: Mus musculus; assay: In vitro binding affinity towards TPA receptor in mouse epidermal particulate fraction using [3H]TPA as radioligand
HeLa [5] = assay: Compound was tested for stimulation of the incorporation of 32Pi into phospholipids of HeLa cells at 10E-4 M concentration; format: functional, Homo sapiens

| pID50 (Mus musculus) | SMILES | Relativity (HeLa [1]) | Relativity (HeLa [2]) | Relativity (HeLa [3]) | Relativity (HeLa [4]) | Relativity (HeLa [5]) |
| --- | --- | --- | --- | --- | --- | --- |
| 4.41 | CC(C)[C@H]1C(=O)N[C@H](CO)Cc2c[nH]c3ccc(F)c(c23)N1C | 1.29 c.p.m. mg-1 | 3.57 c.p.m. mg-1 | 1.28 c.p.m. mg-1 |  | 5.32 c.p.m. mg-1 |
| 5.85 | CC(C)[C@H]1C(=O)N[C@H](CO)Cc2c[nH]c3cc(F)cc(c23)N1C | 1.78 c.p.m. mg-1 | 6.87 c.p.m. mg-1 | 7.43 c.p.m. mg-1 | 1.18 c.p.m. mg-1 |  |

| SMILES | pID50 (Mus musculus) | Relativity (HeLa [1]) | Relativity (HeLa [2]) | Relativity (HeLa [3]) | Relativity (HeLa [4]) | Relativity (HeLa [5]) |
| --- | --- | --- | --- | --- | --- | --- |
| CC(C)[C@H]1C(=O)N[C@H](CO)Cc2c[nH]c3cccc(c23)N1C [INDOLACTUM] | 5.97 | 1.36 c.p.m. mg-1 | 7.82 c.p.m. mg-1 | 4.69 c.p.m. mg-1 | 1.04 c.p.m. mg-1 |  |

Reference: ChEMBL document CHEMBL1127236, “Synthesis and biological activities of fluorine-substituted ()-indolactam-V, the core structure of tumor promoter teleocidins” (1994)
